Assay results reported in article PMC10154330, “Machine learning-driven multifunctional peptide engineering for sustained ocular drug delivery” (Nature Communications, 2023).
Values after ≈ are worked out from the molar mass of the structure shown. Ends that are not written are not given here.

Columns and labels:
[1] = test system: melanin nanoparticles (mNPs); test: Relative binding of drugs to mNPs; set-up: species or system Sepia officinalis
Description: (§1) Supplementary Fig. 1 | Characterization of melanin nanoparticles (mNPs) and biotinylated-melanin
(§2) nanoparticles (b-mNPs). a Representative transmission electron microscopes (TEM) images of mNPs and b-
(§3) (black dots, n = 3 per drug group) and b-mNPs (gray squares, n = 3 per drug group). Data are shown as mean ±
(§4) (1 picture or pasted object on this page, not shown here)

intraocular pressure = test: IOP measurement in normotensive Dutch Belted rabbits; format: in vivo; settings: for cumulative IOP change: Brimonidine group
Experimental: (§5) For the IOP measurements in normotensive rabbits, Dutch Belted rabbits (2–3 kg) were used (n = 5). IOP was measured with a hand-held rebound tonometer icareTONOVET (Vantaa, Finland) in the awake and gently restrained rabbit. Each rabbit was acclimatized to the IOP measurement procedure for at least 5 days to obtain a stable background IOP reading. A mean of three IOP measurements for an individual eye were taken every other day for 6 days (3 times in total) and used as a baseline value. For the ICM injection procedure, rabbits were anesthetized with ketamine/xylazine and received topical anesthesia with 0.5% proparacaine hydrochloride. A corneal pre-puncture was performed with a 30 G needle, followed with a single bolus ICM injection of 200 µg (mass of brimonidine) of HR97-brimonidine or brimonidine tartrate solution in 100 µL saline using a 28 G needle. After the procedure, topical bacitracin-neomycin-polymyxin ophthalmic ointment was applied to both eyes to prevent infection and dry eyes. On day 7, an ophthalmologist masked to treatment evaluate the HR97-brimonidine injected eyes with the following items: functionality of lids, lashes, conjunctiva, cornea transparency, pigmentation of corneal endothelium, depth of anterior chambers, inflammation, fibrin strands, and symmetry of the lens[113]. […] In a separate study, a corneal pre-puncture was performed with a 30 G needle, followed with a single bolus ICM injection of 200 µg (mass of brimonidine) containing a physical mixture of unconjugated HR97 and brimonidine tartrate (HR97 + brimonidine), the equivalent amount of HR97 peptide alone, or saline alone in 100 µL saline. On day 7, day 14, day 21, and day 28, an ophthalmologist masked to treatment performed the same safety evaluations described above. IOP was measured on days 2, 3, 4, 5, 6, 7, 8, 10, 12, 14, 16, 18, and 20 after the ICM injection, and change in IOP from the baseline (ΔIOP) was reported. The mean of three IOP measurements was taken for each eye by one observer, and then confirmed by a masked observer. Alternatively, a single topical eye drop (Alphagan® P 0.1%, 50 µL) was given (n = 5). The IOP were measured immediately before the topical dosing (0 h), and at 2, 4, 6 and 8 h after the eyedrop administration. For the pharmacokinetics studies, rabbits (n = 4 per group) received a single ICM injection with 200 µg (mass of brimonidine) HR97-brimonidine as described above. Rabbits were sacrificed 1, 7, 14, 28 days after the injection, and iris, aqueous, and retina were collected for measuring the brimonidine concentration.

[2] = test system: melanin nanoparticles (mNPs); test: In vitro melanin binding assay (binding capacity and Kd, RED device, HPLC); set-up: species or system Sepia officinalis; settings: binding capacity and dissociation constant of ocular drugs, melanin
Experimental: The solutions (400 µL) were then mixed thoroughly with 400 µL of 1 mg/mL mNPs in pH 6.5 PBS solution and transferred to the inner reservoir of the rapid equilibrium dialysis (RED) device inserts (8 K MWCO). The outer reservoir was filled with 800 µL of pH 6.5 PBS solution. The samples were incubated on an orbital shaker with temperature control at 37 °C and 300 rpm for 48 h (n = 3). The solutions from outer reservoir (free drug) were than collected and transferred to an autosampler vial for HPLC analysis (Prominence LC2030, Shimadzu, Columbia, MD) with photodiode-array detection (PDA) system. […] The amount of bound drug was used to calculate the binding capacity (mol drug/mg melanin) and the dissociation constant (Kd) as previously described[20],[34].

[3] = ref 3 of the peer review file, Acheampong et al. 2002; cited from earlier work
Description: 1.5 Brimonidine is applied as eye drops three times per day. […] Why is that? What is the required free brimonidine concentration for activity?

[4] = Brimonidine in ocular tissues after ICM injection (LC-MS/MS)
Experimental: as §5
Brimonidine concentrations in ocular tissues were measured by liquid chromatography-tandem mass spectrometry (LC-MS/MS) as previously described. All samples were collected in pre-weighed tubes and stored at −80 °C until processing for analysis. Tissue samples were homogenized in 100–600 μL 1 × PBS using a Bullet Blender® (Next Advance, Inc, Troy, NY, USA) before extraction. Brimonidine were extracted from 15 to 50 μL of tissue homogenates with 50 μL of acetonitrile containing 50/50/2.5 ng/mL of the internal standards. The top layer was then transferred to an autosampler vial for LC-MS/MS analysis after centrifugation. All ocular tissue samples were analyzed using a 1 × PBS standard curve for brimonidine. […] The column effluent was monitored using a 5500 mass-spectrometric detector (Sciex) using electrospray ionization operating in positive mode. The mobile phase A was water containing 0.1% formic acid and mobile phase B was acetonitrile containing 0.1% formic acid. The gradient started with mobile phase B held at 20% for 0.5 min and increased to 100% over 0.5 min; 100% mobile phase B was held for 1 min and then returned to 20% mobile phase B and allowed to equilibrate for 1 min.

[5] = test system: biotinylated melanin nanoparticles (b-mNPs); test: Relative binding of drugs to b-mNPs; set-up: species or system Sepia officinalis
Description: as §1, §2, §3, §4

[6] = test system: human cathepsins B, K, L, and S; test: in vitro; settings: isolated enzyme cathepsin other, pH 5.5, cathepsin cleavage assay
ARPE-19 cells = test: Cell viability assay of HR97 peptide (PrestoBlue HS); format: cell-based, human; settings: concentrations up to 5 mg/mL, 12 h incubation, n = 5
Experimental: The PrestoBlue^TM HS cell viability system was used to assess cell viability. ARPE-19 cells were seeded at 0.01 × 10^6 cells/well in 96 well plates and cultured with DMEM:F12 medium containing 10% FBS according to the vendor protocol. After 7 days, 90 µL of DMEM/F12 containing 0, 1, 5, 10, or 20 mg/mL of the HR97 was added. The cells (n = 5) were then incubated for 12 h, and viability was measured by adding 10 µL of PrestoBlue^TM HS cell viability reagents at 37 °C. After 0.5, 1, 2, 3, 4 and 5 h, absorbance (570 nm and 600 nm) was measured at 37 °C and normalized according to the protocol provided by the vendor.

[7] = Ocular safety evaluation / ocular grading after ICM injection; settings: rabbit, in vivo
Experimental: as §5

[8] = test system: melanin nanoparticles (mNPs); test: Melanin binding assay for machine learning model validation (RED device, biotin quantitation); set-up: species or system Sepia officinalis; settings: C-terminal biotinylated peptide 10 µM with mNPs, pH 6.5 PBS, RED 8K device, 24 h, 900 rpm; unbound peptide by fluorescence biotin quantitation; n = 4
Experimental: The mNPs were mixed with C-terminal biotinylated peptides (10 µM) in pH 6.5 PBS solution and incubated in the rapid equilibrium dialysis (RED) 8 K device for 24 h on an orbital shaker at 900 rpm. A total of 10 µL of the solution from the rapid dialysis reservoir was collected. The concentration of unbound biotinylated peptides was analyzed with the Pierce™ Fluorescence Biotin Quantitation Kit. Four sets of melanin binding assays were performed. Melanin binding was calculated as the difference in free peptide normalized with the starting peptide concentration. Experimental melanin binding values of the 127 peptide candidates were compared with the predicted melanin binding values with the Pearson correlation. Melanin binding predictions larger than 100% were cast to 100% because this was the maximum value in the melanin binding training set.

[9] = test system: melanin-induced ARPE-19 cells; test: Cell-penetration (cell uptake) assay, melanin-induced ARPE-19; format: cell-based, human; settings: C-terminal biotinylated peptide 100 µM in pH 6.5 PBS, 6 h, 37 °C, 5 PBS washes, RIPA lysis, fluorescence biotin quantitation, n = 3
Experimental: Three 96 well plates per ARPE19 cell type group (melanin-induced or non-melanin induced) were seeded at 0.01 × 10^6 cells/well. ARPE-19 cells were either cultured with DMEM:F12 medium containing 10% FBS according to protocol provided by the vendor (non-melanin induced) or cultured in DMEM high glucose, pyruvate media with 250 µM of ferric ammonium citrate[107] for 2 months (melanin-induced)[20]. The expression of melanin was confirmed visually with bright field microscopy and by measuring absorbance at 475 nm (>0.4 arb. units)[20]. Within each plate, 12 wells were randomly selected to quantify the cell numbers with an automated cell counter (Countess 3 Automated Cell Counter, Thermo Fisher) for normalization in the cell uptake study. […] To quantify cell-associated peptides, the cells were lysed with 100 µL of RIPA lysis buffer at 4 °C for 48 h. The concentration of intracellular biotinylated peptides was analyzed with the Pierce™ Fluorescence Biotin Quantitation Kit. The mean intracellular concentration values of the three replicates were then grouped by cell types (melanin-induced or non-melanin induced), and a two-tailed Mann–Whitney U (Wilcoxon rank-sum) test was calculated using the wilcox.test function in R. The intracellular concentration values were also plotted against experimental melanin binding. […]

Brc1c(NC2=NCCN2)ccc2nccnc12 [brimonidine]
Relative binding of drugs to mNPs ([1]; replicate 1 of n = 3): 141.911
Relative binding of drugs to mNPs ([1]; replicate 2 of n = 3): 83.4707
Relative binding of drugs to mNPs ([1]; replicate 3 of n = 3): 74.618
cumulative IOP change (intraocular pressure; rabbit 1, sex printed Female): 3.583
cumulative IOP change (intraocular pressure; rabbit 2, sex printed Male): -9.917
cumulative IOP change (intraocular pressure; rabbit 3, sex printed Female): 9.167
cumulative IOP change (intraocular pressure; rabbit 4, sex printed Male): 13.75
cumulative IOP change (intraocular pressure; rabbit 5, sex printed Female): 2.667
peak ΔIOP at 2 days (intraocular pressure; single ICM injection, 200 µg brimonidine equivalent, n = 5): −2.6 ± 1.65 mmHg
time for the mean ΔIOP to return to baseline (intraocular pressure; single ICM injection, n = 5 per group): 8 days
Binding Capacity (mole/mg melanin) [2]: 5e-8 mole/mg melanin
Kd [2]: 5.27 µM
EC50 in the aqueous humor [3]: 2.9 ng/mL (≈ 9.93 nM)
brimonidine levels in eye tissues, Iris ([4]; 1 days, sample 1 (Male)): 11376.8
brimonidine levels in eye tissues, Iris ([4]; 1 days, sample 2 (Male)): 47581.5
brimonidine levels in eye tissues, Iris ([4]; 1 days, sample 3 (Female)): 23310.4
brimonidine levels in eye tissues, Iris ([4]; 7 days, sample 1 (Female)): 2210.2
brimonidine levels in eye tissues, Iris ([4]; 7 days, sample 2 (Female)): 5336.3
brimonidine levels in eye tissues, Iris ([4]; 7 days, sample 3 (Male)): 10576.6
brimonidine levels in eye tissues, Iris ([4]; 7 days, sample 4 (Male)): 7554.5
brimonidine levels in eye tissues, Iris ([4]; 14 days, sample 1 (Female)): 3473.6
brimonidine levels in eye tissues, Iris ([4]; 14 days, sample 2 (Female)): 5226.5
brimonidine levels in eye tissues, Iris ([4]; 14 days, sample 3 (Male)): 4493.7
brimonidine levels in eye tissues, Iris ([4]; 14 days, sample 4 (Male)): 711.1
brimonidine levels in eye tissues, Iris ([4]; 28 days, sample 1 (Male)): 1400.2
brimonidine levels in eye tissues, Iris ([4]; 28 days, sample 2 (Male)): 859.9
brimonidine levels in eye tissues, Iris ([4]; 28 days, sample 3 (Female)): 1137.6
brimonidine levels in eye tissues, Iris ([4]; 28 days, sample 4 (Female)): 522.1
brimonidine levels in eye tissues, Retina ([4]; 1 days, sample 1 (Male)): 23.3
brimonidine levels in eye tissues, Retina ([4]; 1 days, sample 2 (Male)): 64.6
brimonidine levels in eye tissues, Retina ([4]; 1 days, sample 3 (Female)): 636.9
brimonidine levels in eye tissues, Retina ([4]; 1 days, sample 4 (Female)): 1138.2
brimonidine levels in eye tissues, Retina ([4]; 7 days, sample 1 (Female)): 14.2
brimonidine levels in eye tissues, Retina ([4]; 7 days, sample 2 (Female)): 4.9
brimonidine levels in eye tissues, Retina ([4]; 7 days, sample 3 (Male)): 125.6
brimonidine levels in eye tissues, Retina ([4]; 7 days, sample 4 (Male)): 19.8
brimonidine levels in eye tissues, Retina ([4]; 14 days, sample 1 (Female)): 33.2
brimonidine levels in eye tissues, Retina ([4]; 14 days, sample 2 (Female)): 7.4
brimonidine levels in eye tissues, Retina ([4]; 14 days, sample 3 (Male)): 43
brimonidine levels in eye tissues, Retina ([4]; 14 days, sample 4 (Male)): 14.8
brimonidine levels in eye tissues, Retina ([4]; 28 days, sample 1 (Male)): 10.7
brimonidine levels in eye tissues, Retina ([4]; 28 days, sample 2 (Male)): 7.9
brimonidine levels in eye tissues, Retina ([4]; 28 days, sample 3 (Female)): 8.6
brimonidine levels in eye tissues, Retina ([4]; 28 days, sample 4 (Female)): 5.8
Relative binding of drugs to b-mNPs ([5]; replicate 1 of n = 3): 84.2618
Relative binding of drugs to b-mNPs ([5]; replicate 2 of n = 3): 102.105
Relative binding of drugs to b-mNPs ([5]; replicate 3 of n = 3): 167.093

FSGKRRKRKPR [HR97]
remaining at 48 h, 100 µM [6]: 87.7%
cytotoxicity in ARPE-19 cells (ARPE-19 cells): no sign of cytotoxicity
Ocular grading, all 17 items (pupillary light reflex to Meibomian gland function) [7]: All values are zero
Ocular grading, all other scores of the 17 items [7]: 0
Ocular grading: Fluorescein staining (area) [7]: 1
Ocular grading: Fluorescein staining (severity) [7]: 1
ocular toxicity, ophthalmologist evaluation [7]: no ocular toxicity was observed

YGRKKRRQRRR [TAT47–57]
melanin binding (bound fraction) [8]: 77.6 ± 1.5%
cell uptake (intracellular peptide concentration) [9]: 457.1 ± 34.2 pmol/100 K cells
